{"source": "patent US20070093539A1", "about": "“N-hydroxy-4-(3-pheyl-5-methyl-isoxazole-4-yl)-benzenesulfonate solvates” (priority 2003, published 2007)", "target": "T1, sheep COX-1 (Ovis aries, UniProt P05979)", "T1 construct": "purchased Cayman Chemical, Ann Arbor, USA 60100", "T1 sequence (P05979 25-600)": "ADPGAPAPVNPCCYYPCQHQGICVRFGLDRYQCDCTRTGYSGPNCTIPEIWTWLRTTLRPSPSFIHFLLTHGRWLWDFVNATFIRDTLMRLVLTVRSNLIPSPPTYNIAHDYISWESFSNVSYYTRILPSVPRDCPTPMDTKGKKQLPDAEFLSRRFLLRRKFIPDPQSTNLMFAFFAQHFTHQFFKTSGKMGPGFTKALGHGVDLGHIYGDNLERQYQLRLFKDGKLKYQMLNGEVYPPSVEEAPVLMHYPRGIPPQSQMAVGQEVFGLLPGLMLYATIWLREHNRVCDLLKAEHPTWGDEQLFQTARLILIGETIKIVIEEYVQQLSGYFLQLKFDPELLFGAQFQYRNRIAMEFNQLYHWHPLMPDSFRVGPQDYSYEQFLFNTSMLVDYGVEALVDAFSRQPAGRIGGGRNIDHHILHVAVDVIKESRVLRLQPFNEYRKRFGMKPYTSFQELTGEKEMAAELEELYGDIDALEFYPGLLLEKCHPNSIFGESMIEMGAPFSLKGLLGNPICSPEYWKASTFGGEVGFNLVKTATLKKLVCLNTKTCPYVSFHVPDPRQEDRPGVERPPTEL", "test": "spectrophotometric TMPD assay, COX-1", "format": "biochemical", "conditions": "15 min preincubation at 25° C., read-out: Sheep COX-1 IC50 (μM) ± S.E.M.", "description": "The Human recombinant COX-2 and sheep COX-1 activity were determined by spectrophotometric TMPD assay (K. Gierse, S. D. Hauser, D. P. Creely, C. M. Koboldt, S. H. Rangwala, P. C. Isakson and K. Seibert: Expression and selective inhibition of the constitutive and inducible forms of human cyclo-oxygenase Biochem. J. 305: 479-484 (1995)).\nThe Human recombinant COX-2 and sheep COX-1 activity were measured by spectrophotometric assay based on oxidation of N,N,N′,N′,-tetramethyl-p-phenylenediamine (TMPD). During the reduction of the prostaglandine G2 (PGG2) to prostaglandine endoperoxid H2 (PGH2), the TMPD is being oxidated to a colour product, which can be measured by spectrophotometer at 610 nm.\n4 μl of solution of inhibitors in different concentrations was added to the 156 μl of reaction mixture (100 mM sodium phosphate buffer, pH:6.5, 1 μM hematin, 1 mg/ml gelatine). Afterwards 20 μl solution of 50 unit human recombinant COX-2 enzym or 20 μl of 50 unit sheep COX-1 enzym (Cayman Chemical, Ann Arbor, USA, cat no.: 60122/COX-2/, cat. no.: 60100/COX-1/) was added. The incubation mixture: was preincubated for 15 minutes at 25° C. in a spectrophotometric 96-well plate reader (Labsystem iEMS Reader MF). Following this, the mixture of 20 μl 1 mM arachidonic acid and 1 mM TMPD solution were added. It was shaken for 10 second and the absorbance was measured at 610 nm.", "data": [{"substance": "N-hydroxi-4-(3-phenyl-5-methyl-isoxazole-4-yl)-benzenesulfonamide monohydrate [example 1]", "values": [{"measurement": "IC50", "result": "101 ± 12.5", "unit": "µM"}]}]}
